Measurements reported in the NIST ThermoML archive (doi:10.1016/j.fluid.2005.03.026).
± gives the expanded uncertainty stated by the source.

Tests used:
[1] = molar heat capacity at constant pressure; conditions: 101.3 kPa, Liquid, Small sample (50 mg) DSC
[2] = molar heat capacity at constant pressure; xn = mol fraction of the nth substance listed; conditions: 101.3 kPa, Liquid, Small sample (50 mg) DSC

In the case of `Cc1ccc(C)cc1` [1,4-dimethylbenzene], the “molar heat capacity at constant pressure” value ([1]; 288.15 K) is reported as 178.86 ± 2.8 J/K/mol, the “molar heat capacity at constant pressure” value ([1]; 298.15 K) is reported as 182.56 ± 2.8 J/K/mol and the “molar heat capacity at constant pressure” value ([1]; 308.15 K) is reported as 186.15 ± 2.9 J/K/mol.

In the case of `Cc1ccc(C)cc1` [1,4-dimethylbenzene] + CCCCCCCCCC, the “molar heat capacity at constant pressure” value ([2]; 288.15 K, x1 = 0.05066) is reported as 303.41 ± 4.7 J/K/mol, the “molar heat capacity at constant pressure” value ([2]; 288.15 K, x1 = 0.1092) is reported as 295.7 ± 4.6 J/K/mol and the “molar heat capacity at constant pressure” value ([2]; 288.15 K, x1 = 0.1983) is reported as 283.92 ± 4.4 J/K/mol. For the same molecule, the “molar heat capacity at constant pressure” value ([2]; 288.15 K, x1 = 0.3105) was 269 ± 4.2 J/K/mol, the “molar heat capacity at constant pressure” value ([2]; 288.15 K, x1 = 0.3427) was 264.73 ± 4.1 J/K/mol and the “molar heat capacity at constant pressure” value ([2]; 288.15 K, x1 = 0.4538) was 250.03 ± 3.9 J/K/mol. The “molar heat capacity at constant pressure” value ([2]; 288.15 K, x1 = 0.4919) was 244.95 ± 3.8 J/K/mol, the “molar heat capacity at constant pressure” value ([2]; 288.15 K, x1 = 0.5995) was 230.71 ± 3.6 J/K/mol and the “molar heat capacity at constant pressure” value ([2]; 288.15 K, x1 = 0.6975) was 217.77 ± 3.4 J/K/mol. For the same molecule, the “molar heat capacity at constant pressure” value ([2]; 288.15 K, x1 = 0.7866) was 206.1 ± 3.2 J/K/mol, the “molar heat capacity at constant pressure” value ([2]; 288.15 K, x1 = 0.8403) was 199.13 ± 3.1 J/K/mol and the “molar heat capacity at constant pressure” value ([2]; 288.15 K, x1 = 0.8993) was 191.5 ± 3 J/K/mol. The “molar heat capacity at constant pressure” value ([2]; 288.15 K, x1 = 0.9499) was 185.04 ± 2.9 J/K/mol, the “molar heat capacity at constant pressure” value ([2]; 298.15 K, x1 = 0.05066) was 308.28 ± 4.8 J/K/mol and the “molar heat capacity at constant pressure” value ([2]; 298.15 K, x1 = 0.1092) was 300.41 ± 4.7 J/K/mol. For the same molecule, the “molar heat capacity at constant pressure” value ([2]; 298.15 K, x1 = 0.1983) was 288.58 ± 4.5 J/K/mol, the “molar heat capacity at constant pressure” value ([2]; 298.15 K, x1 = 0.3105) was 273.63 ± 4.2 J/K/mol and the “molar heat capacity at constant pressure” value ([2]; 298.15 K, x1 = 0.3427) was 269.34 ± 4.2 J/K/mol. For the same molecule, the “molar heat capacity at constant pressure” value ([2]; 298.15 K, x1 = 0.4538) was 254.47 ± 3.9 J/K/mol, the “molar heat capacity at constant pressure” value ([2]; 298.15 K, x1 = 0.4919) was 249.41 ± 3.9 J/K/mol and the “molar heat capacity at constant pressure” value ([2]; 298.15 K, x1 = 0.5995) was 235.12 ± 3.6 J/K/mol. The “molar heat capacity at constant pressure” value ([2]; 298.15 K, x1 = 0.6975) was 222.04 ± 3.4 J/K/mol, the “molar heat capacity at constant pressure” value ([2]; 298.15 K, x1 = 0.7866) was 210.33 ± 3.3 J/K/mol and the “molar heat capacity at constant pressure” value ([2]; 298.15 K, x1 = 0.8403) was 203.21 ± 3.1 J/K/mol. For the same molecule, the “molar heat capacity at constant pressure” value ([2]; 298.15 K, x1 = 0.8993) was 195.54 ± 3 J/K/mol, the “molar heat capacity at constant pressure” value ([2]; 298.15 K, x1 = 0.9499) was 188.96 ± 2.9 J/K/mol and the “molar heat capacity at constant pressure” value ([2]; 308.15 K, x1 = 0.05066) was 313.15 ± 4.8 J/K/mol. The “molar heat capacity at constant pressure” value ([2]; 308.15 K, x1 = 0.1092) was 305.32 ± 4.7 J/K/mol, the “molar heat capacity at constant pressure” value ([2]; 308.15 K, x1 = 0.1983) was 293.34 ± 4.5 J/K/mol and the “molar heat capacity at constant pressure” value ([2]; 308.15 K, x1 = 0.3105) was 278.21 ± 4.3 J/K/mol. For the same molecule, the “molar heat capacity at constant pressure” value ([2]; 308.15 K, x1 = 0.3427) was 273.97 ± 4.2 J/K/mol, the “molar heat capacity at constant pressure” value ([2]; 308.15 K, x1 = 0.4538) was 258.95 ± 4 J/K/mol and the “molar heat capacity at constant pressure” value ([2]; 308.15 K, x1 = 0.4919) was 253.84 ± 3.9 J/K/mol. For the same molecule, the “molar heat capacity at constant pressure” value ([2]; 308.15 K, x1 = 0.5995) was 239.35 ± 3.7 J/K/mol, the “molar heat capacity at constant pressure” value ([2]; 308.15 K, x1 = 0.6975) was 226.15 ± 3.5 J/K/mol and the “molar heat capacity at constant pressure” value ([2]; 308.15 K, x1 = 0.7866) was 214.31 ± 3.3 J/K/mol. For the same molecule, the “molar heat capacity at constant pressure” value ([2]; 308.15 K, x1 = 0.8403) was 207.08 ± 3.2 J/K/mol, the “molar heat capacity at constant pressure” value ([2]; 308.15 K, x1 = 0.8993) was 199.3 ± 3.1 J/K/mol and the “molar heat capacity at constant pressure” value ([2]; 308.15 K, x1 = 0.9499) was 192.6 ± 3 J/K/mol.

With `Cc1ccc(C)cc1` [1,4-dimethylbenzene] + COC(=O)OC the “molar heat capacity at constant pressure” value ([2]; 288.15 K, x2 = 0) was 178.86 ± 2.8 J/K/mol, the “molar heat capacity at constant pressure” value ([2]; 288.15 K, x2 = 0.04522) was 178.07 ± 2.8 J/K/mol and the “molar heat capacity at constant pressure” value ([2]; 288.15 K, x2 = 0.09687) was 177.32 ± 2.8 J/K/mol. The “molar heat capacity at constant pressure” value ([2]; 288.15 K, x2 = 0.2003) was 175.72 ± 2.7 J/K/mol, the “molar heat capacity at constant pressure” value ([2]; 288.15 K, x2 = 0.3136) was 173.97 ± 2.7 J/K/mol and the “molar heat capacity at constant pressure” value ([2]; 288.15 K, x2 = 0.4125) was 172.39 ± 2.7 J/K/mol. For the same molecule, the “molar heat capacity at constant pressure” value ([2]; 288.15 K, x2 = 0.4946) was 171.06 ± 2.6 J/K/mol, the “molar heat capacity at constant pressure” value ([2]; 288.15 K, x2 = 0.5368) was 170.43 ± 2.6 J/K/mol and the “molar heat capacity at constant pressure” value ([2]; 288.15 K, x2 = 0.6528) was 168.55 ± 2.6 J/K/mol. For the same molecule, the “molar heat capacity at constant pressure” value ([2]; 288.15 K, x2 = 0.8445) was 165.6 ± 2.6 J/K/mol, the “molar heat capacity at constant pressure” value ([2]; 288.15 K, x2 = 0.9) was 164.89 ± 2.5 J/K/mol and the “molar heat capacity at constant pressure” value ([2]; 298.15 K, x2 = 0) was 182.56 ± 2.8 J/K/mol. For the same molecule, the “molar heat capacity at constant pressure” value ([2]; 298.15 K, x2 = 0.04522) was 181.79 ± 2.8 J/K/mol, the “molar heat capacity at constant pressure” value ([2]; 298.15 K, x2 = 0.09687) was 180.82 ± 2.8 J/K/mol and the “molar heat capacity at constant pressure” value ([2]; 298.15 K, x2 = 0.2003) was 178.96 ± 2.8 J/K/mol. The “molar heat capacity at constant pressure” value ([2]; 298.15 K, x2 = 0.3136) was 176.99 ± 2.7 J/K/mol, the “molar heat capacity at constant pressure” value ([2]; 298.15 K, x2 = 0.4125) was 175.09 ± 2.7 J/K/mol and the “molar heat capacity at constant pressure” value ([2]; 298.15 K, x2 = 0.4946) was 173.56 ± 2.7 J/K/mol. For the same molecule, the “molar heat capacity at constant pressure” value ([2]; 298.15 K, x2 = 0.5368) was 172.79 ± 2.7 J/K/mol, the “molar heat capacity at constant pressure” value ([2]; 298.15 K, x2 = 0.6528) was 170.61 ± 2.6 J/K/mol and the “molar heat capacity at constant pressure” value ([2]; 298.15 K, x2 = 0.8445) was 167.14 ± 2.6 J/K/mol. For the same molecule, the “molar heat capacity at constant pressure” value ([2]; 298.15 K, x2 = 0.9) was 166.25 ± 2.6 J/K/mol, the “molar heat capacity at constant pressure” value ([2]; 308.15 K, x2 = 0) was 186.15 ± 2.9 J/K/mol and the “molar heat capacity at constant pressure” value ([2]; 308.15 K, x2 = 0.04522) was 185.28 ± 2.9 J/K/mol. The “molar heat capacity at constant pressure” value ([2]; 308.15 K, x2 = 0.09687) was 184.22 ± 2.9 J/K/mol, the “molar heat capacity at constant pressure” value ([2]; 308.15 K, x2 = 0.2003) was 182.14 ± 2.8 J/K/mol and the “molar heat capacity at constant pressure” value ([2]; 308.15 K, x2 = 0.3136) was 179.84 ± 2.8 J/K/mol. For the same molecule, the “molar heat capacity at constant pressure” value ([2]; 308.15 K, x2 = 0.4125) was 177.74 ± 2.8 J/K/mol, the “molar heat capacity at constant pressure” value ([2]; 308.15 K, x2 = 0.4946) was 176.04 ± 2.7 J/K/mol and the “molar heat capacity at constant pressure” value ([2]; 308.15 K, x2 = 0.5368) was 175.13 ± 2.7 J/K/mol. For the same molecule, the “molar heat capacity at constant pressure” value ([2]; 308.15 K, x2 = 0.6528) was 172.04 ± 2.7 J/K/mol, the “molar heat capacity at constant pressure” value ([2]; 308.15 K, x2 = 0.8445) was 168.84 ± 2.6 J/K/mol and the “molar heat capacity at constant pressure” value ([2]; 308.15 K, x2 = 0.9) was 167.79 ± 2.6 J/K/mol.
